BigSolDB 2.1

CO[C@H]1O[C@@H]2O[C@@]3(C)CC[C@H]4[C@H](C)CC[C@@H]([C@H]1C)[C@@]24OO3
solubility (mole fraction)
Conditions	in ethanol	in methanol
289.05 K	0.0395	–
289.45 K	–	0.0263
290.85 K	0.0426	–
291.15 K	–	0.0295
293.95 K	0.0492	–
294.05 K	–	0.0343
296.95 K	0.0592	0.0405
299.05 K	0.0682	0.0463
300.75 K	–	0.0519
301.05 K	0.0764	–
303.55 K	–	0.0649
303.95 K	0.0903	–
306.35 K	–	0.0824
306.95 K	0.11	–
308.25 K	–	0.0988
308.45 K	0.117	–
310.15 K	–	0.116
310.45 K	0.133	–
312.95 K	–	0.149
313.2 K	0.164	–
315.65 K	–	0.187
316.25 K	0.2	–
317.35 K	–	0.222
318.95 K	0.251	–
319.45 K	–	0.297
322.05 K	–	0.355
322.65 K	0.315	–
326.05 K	0.387	–
328.65 K	0.442	–
